Results reported in article PMC5062570 (Nature Communications, 2016).
Entries after “also recorded” stand apart in the source; their conditions may differ. Read-outs that look alike come from different tables or passages of the source.

Experiments:
[1] = system: retinal pigment epithelium (RPE); design: method as in PMID 22090477, PMID 25361751; conditions: cited from earlier work
[2] = pKa determination by multiplexed capillary electrophoresis; assay type: physicochemical; conditions: aqueous buffers
Procedure: All pKa values were determined at Analiza, Inc. by multiplexed capillary electrophoresis (mCE) using 96-capillary array electrophoresis instrument to measure the effective mobility (migration time of the compound in relation to neutral marker, DMSO) with ultraviolet detection. The pKa values were obtained from the ionization curves by plotting the compound effective mobility (24 points across pH range 1.7–11.2) versus pH. All pKa results were determined using aqueous buffers with method average absolute error 0.12.

[3] = system: retinal pigment epithelium (RPE); experiment: Exploratory toxicology, ocular toxicity by retinal histology in rats; assay type: in vivo; conditions: for Female ocular toxicity incidence (positive or negative animals / total evaluated) / Female ocular toxicity outcome / Male ocular toxicity incidence (positive or negative animals / total evaluated) / Male ocular toxicity outcome: rat; for Ocular toxicity: 29-day studies with high daily doses
Procedure: (§1) Wistar Han rats (obtained from Charles River, 125–300 g, 6–9 weeks old at study start, see Supplementary Table 7 for number of males and females) received daily oral dosing of test compounds or vehicle at the indicated concentrations for 7–29 days as indicated. The doses were prepared in a solution of 0.5% methylcellulose and 0.2% polysorbate 80, or 0.5% methylcellulose and hydroxypropyl methylcellulose acetate succinate (high fine grade) and delivered in a volume of 10 ml kg^−1 per day. Blood samples for bioanalytical analysis were collected in K2EDTA tubes via jugular vessel. Plasma was isolated after centrifugation and stored at −20 °C prior to analysis. Animals were given an additional dose the day after the end of the study (days 8, 15 or 30 for 7, 14 and 29 day studies, respectively) then killed by gas anaesthesia (isoflurane) followed by exsanguination ∼3 h after this final dose.

[4] = Plasma exposure (average unbound plasma concentration) in rats; assay type: in vivo, rat; conditions: Wistar Han, oral, rat, 29 days, average unbound plasma concentration, read-out: Avg Cp,u parent
Procedure: as §1
Plasma samples were analysed after protein precipitation by treating 20 μl of sample matrix with 200 μl of acetonitrile containing internal standard. All samples were centrifuged at 3,000 r.p.m. for 5 min. Then 100 μl of supernatant was transferred to a clean plate and evaporated to dryness under N2. Samples were reconstituted in 200 μl of 80:20 (v:v) acetonitrile:water. Samples were analysed on Waters Acquity UPLC connected to AB Sciex API5500 QTrap MS/MS.
Plasma protein binding was determined in the Rapid Equilibrium Device (RED, Thermo Scientific). Frozen plasma was warmed to 37 °C and adjusted to pH 7.4. The plasma was spiked with compound to a final concentration of 2 μM. Aliquots of spiked plasma were added to the donor (red) side, followed by addition of buffer to the receiver (white) side. The RED device was covered with a gas-permeable membrane and agitated within a humidified CO2 incubator (5% CO2, 75% relative humidity). Plasma (15 μl) and buffer (45 μl) were sampled from each insert and were matrix-matched with appropriate blank matrix (plasma with 45 μl buffer and buffer with 15 μl of plasma). Samples were protein-precipitated with acetonitrile containing internal standard, and the resulting supernatant was analysed by LC-MS/MS.

CatD [5] = conditions: read-out: IC50 against purified CatD in vitro; cited from earlier work
CatD [6] = molecular target: T1, CatD (Homo sapiens, UniProt P07339); experiment: CatD cellular assay (competition of PF-7802 photolabelling in live ARPE-19 cells); assay type: cell-based; design: host or cells: ARPE-19; conditions: for CatD potency increase in live cells: CatD enzyme IC50 versus CatD cellular IC50; for IC50: live ARPE-19 cells, PF-7802 photoprobe 100 nM, 30 min
Procedure: ARPE-19 cells were plated at a density of 1.2 × 10^6 cells per well in six-well dishes 12–24 h before probe labelling. Culture media was removed completely and replaced with 1 ml of the appropriate serum-free media (no supplements) per well. Cells were then pretreated with test compounds at the indicated concentrations for 30 min (0.5% DMSO, 37 °C, 5% CO2). […] Ultraviolet irradiation was performed without culture plate lids for efficient irradiation, and samples were slowly rotated to prevent evaporation. After ultraviolet irradiation, cells were washed twice with Dulbecco's phosphate-buffered saline (DPBS), scraped into DPBS, centrifuged and stored as pellets at −80 °C.
Cells were lysed with sonication on ice in 70 μl DPBS and protein concentrations were determined using a BCA assay (Pierce). Total protein concentrations were then normalized to 1 mg ml^−1 in 50 μl total volume before addition of 5.5 μl click chemistry mix (1 : 3 : 1 : 0.5 volume of 50 mM CuSO4 (Sigma) in H2O : 1.7 mM TBTA (Sigma) in 4:1 t-BuOH:DMSO : 50 mM TCEP (Hampton Research) in dPBS : 10 mM TAMRA-azide (Lumiprobe) in DMSO - mixed immediately before use. Reagent solutions can be premade and stored at 4 °C except for TCEP, which should be made immediately before use). […] All fluorescence gels are presented in greyscale.
Target sequence in this assay (P07339 169-412 limits assumed): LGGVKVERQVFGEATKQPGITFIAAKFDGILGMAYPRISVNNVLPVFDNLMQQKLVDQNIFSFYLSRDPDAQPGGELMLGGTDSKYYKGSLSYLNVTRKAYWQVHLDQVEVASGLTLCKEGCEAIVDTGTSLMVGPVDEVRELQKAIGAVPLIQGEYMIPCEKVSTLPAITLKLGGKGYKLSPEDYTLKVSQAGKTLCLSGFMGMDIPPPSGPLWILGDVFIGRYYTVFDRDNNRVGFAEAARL
Target sequence in this assay (P07339 65-162 limits assumed): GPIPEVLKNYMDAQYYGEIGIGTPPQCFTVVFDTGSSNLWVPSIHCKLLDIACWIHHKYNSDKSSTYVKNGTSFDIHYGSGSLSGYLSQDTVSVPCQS

BACE1 [7] = molecular target: T2, BACE1 (Homo sapiens, UniProt P56817); experiment: BACE1 biochemical cellular assay (sAPPβ ELISA in H4 cells overexpressing APP695); assay type: cell-based; design: endogenous in cells; host or cells: H4 human neuroglioma cells overexpressing human APP695; conditions: for BACE1 potency increase in live cells: BACE1 enzyme IC50 versus BACE1 cellular IC50; for IC50: sAPPβ ELISA, H4 neuroglioma cells with human wild-type APP
Procedure: Cellular inhibition of BACE1 was determined by measuring sAPPβ, the primary cleavage product of BACE-1, in H4 human neuroglioma cells overexpressing the wild-type human APP695. […] The colorimetric reaction was read by an EnVision plate reader (PerkinElmer).
Target sequence in this assay (P56817 46-501): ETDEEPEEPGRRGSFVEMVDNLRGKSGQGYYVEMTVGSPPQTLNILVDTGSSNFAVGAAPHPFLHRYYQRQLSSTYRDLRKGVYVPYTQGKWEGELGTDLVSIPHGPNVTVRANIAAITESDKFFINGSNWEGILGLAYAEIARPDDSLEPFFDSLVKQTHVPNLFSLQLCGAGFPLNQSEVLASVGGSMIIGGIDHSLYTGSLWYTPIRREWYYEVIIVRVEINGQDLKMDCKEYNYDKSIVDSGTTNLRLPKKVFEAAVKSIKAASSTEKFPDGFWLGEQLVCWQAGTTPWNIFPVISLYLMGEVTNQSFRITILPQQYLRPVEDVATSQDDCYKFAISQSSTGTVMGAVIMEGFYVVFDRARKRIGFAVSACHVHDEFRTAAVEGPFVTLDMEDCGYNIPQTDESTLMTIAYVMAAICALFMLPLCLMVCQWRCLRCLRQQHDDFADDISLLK

CatD [8] = molecular target: T1, CatD; experiment: CatD purified enzyme fluorescence polarization assay; assay type: biochemical; design: final maturation into a non-covalently associated heavy chain and light chain; purchased Sigma C8696; host or cells: human liver; conditions: for IC50: purified human enzyme, fluorescence polarization, substrate-based
Procedure: (§2) Purified enzyme inhibition of BACE1, BACE2, CatD and CatE was determined using fluorescence polarization (FP) assays. Briefly, purified enzymes were treated with test compounds (1% DMSO, 37 °C) in the presence of synthetic peptide substrates (150 nM) in 30 μl total volume of NaOAc buffer (100 mM, pH 4.5, 0.0001% Tween-20) in a 384-well plate. After incubation, reactions were stopped and substrate captured by the addition of 1.5 μM streptavidin, and FP measured with an EnVision plate reader (PerkinElmer, excitation 485 nm, emission 530 nm). […] BACE2 activity was assessed with 0.5 nM recombinant BACE2 (R&D Systems 4097-AS) and the same synthetic substrate used for BACE1, with a 1 h incubation time. […] CatE activity was assessed with 1.0 nM recombinant CatE (Creative BioMart CTSE-255H) and the same synthetic substrate used for CatD, with a 1.5 h incubation time.
Target sequence in this assay (P07339 65-162 limits assumed): as the sequence (P07339 65-162 limits assumed) above
Target sequence in this assay (P07339 169-412 limits assumed): as the sequence (P07339 169-412 limits assumed) above

BACE2 = molecular target: T3, BACE2 (Homo sapiens, UniProt Q9Y5Z0); experiment: BACE2 purified enzyme fluorescence polarization assay; assay type: biochemical; conditions: purified human enzyme, fluorescence polarization
T3 construct: purchased R&D Systems 4097-AS
T3 sequence (Q9Y5Z0 63-518): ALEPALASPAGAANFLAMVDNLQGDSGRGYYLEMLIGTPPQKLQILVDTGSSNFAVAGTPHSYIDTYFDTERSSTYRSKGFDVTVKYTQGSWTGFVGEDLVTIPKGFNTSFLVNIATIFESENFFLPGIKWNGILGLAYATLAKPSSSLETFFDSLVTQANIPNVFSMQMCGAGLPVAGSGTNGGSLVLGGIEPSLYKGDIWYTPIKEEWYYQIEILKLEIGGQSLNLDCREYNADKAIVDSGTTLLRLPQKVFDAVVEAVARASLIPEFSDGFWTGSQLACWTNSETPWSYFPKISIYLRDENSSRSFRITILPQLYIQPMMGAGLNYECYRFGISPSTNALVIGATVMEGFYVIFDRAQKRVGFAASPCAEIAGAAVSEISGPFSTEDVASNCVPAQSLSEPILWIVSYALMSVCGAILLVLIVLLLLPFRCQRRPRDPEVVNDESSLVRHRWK
Procedure: as §2

BACE1 [9] = molecular target: T2, BACE1; experiment: BACE1 purified enzyme fluorescence polarization assay; assay type: biochemical; design: His (C); made in house; host or cells: CHO-K1
Procedure: as §2
Target sequence in this assay (P56817 46-457): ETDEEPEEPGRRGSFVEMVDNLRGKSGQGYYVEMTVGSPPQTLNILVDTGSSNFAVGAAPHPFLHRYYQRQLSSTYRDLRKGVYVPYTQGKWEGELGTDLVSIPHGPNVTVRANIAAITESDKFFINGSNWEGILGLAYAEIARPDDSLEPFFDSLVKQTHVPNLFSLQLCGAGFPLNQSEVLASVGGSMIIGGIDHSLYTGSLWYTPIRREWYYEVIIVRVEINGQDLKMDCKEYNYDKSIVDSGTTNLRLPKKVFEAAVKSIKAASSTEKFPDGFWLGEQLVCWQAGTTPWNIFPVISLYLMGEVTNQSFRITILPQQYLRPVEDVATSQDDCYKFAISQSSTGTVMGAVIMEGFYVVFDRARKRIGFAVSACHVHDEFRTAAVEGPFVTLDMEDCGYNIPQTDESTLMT

CatD in ARPE-19 cells = CatD in ARPE-19 cells (Homo sapiens, UniProt P07339); experiment: Live cell lysosome neutralization and PF-7802 labelling of CatD; conditions: ammonium chloride 10 mM, 2 h or bafilomycin A1 400 nM, 4 h before labelling
Sequence of CatD in ARPE-19 cells (P07339 169-412 limits assumed): as the sequence (P07339 169-412 limits assumed) above
Sequence of CatD in ARPE-19 cells (P07339 65-162 limits assumed): as the sequence (P07339 65-162 limits assumed) above
Procedure: Immunoblots were scanned using a LiCor Odyssey. The integrated optical density of each in-gel fluorescence band was measured using ImageJ, and normalized to the CatD heavy chain protein level, also determined in ImageJ. For imaging experiments, cells were plated on coverslips and neutralized as described above. LysoSensor DND-189 (1 μM, Thermo Scientific) was then added for 30 min, followed by a 1 h washout in fresh culture media containing the neutralization reagents. Nuclei were stained with Hoescht 33342 for 5 min (20 μM, Thermo Fisher), and cells imaged live with a Zeiss LSM 780 Laser Scanning Confocal Microscope using a W Plan-Apochromat 63 × /1.0 M27 immersion objective. A 488 nm laser (10% laser power, detection from 490 to 552 nm) and 405 nm laser (6% laser power, detection from 410 to 468 nm) were used, respective detector gains set at 700 and 878, and 12-bit images acquired. Image processing was completed in ZEN lite 2012.

[10] = 29 days, 100 mg kg-1 once daily
[11] = purified human enzyme, fluorescence polarization, peptide substrate

| Structure (SMILES) | CatD potency increase in live cells (CatD [6]) [x] | BACE1 potency increase in live cells (BACE1 [7]) [x] | IC50 (BACE2) [µM] | IC50 (CatD [6]) [µM] | IC50 (CatD [8]) [µM] | pKa [2] | IC50 (BACE1 [9]; [11]) [µM] | IC50 (BACE1 [7]) [µM] | further results |
| --- | --- | --- | --- | --- | --- | --- | --- | --- | --- |
| CC1(C#Cc2cnc3c(c2)[C@]2(COC(N)=N2)c2cc(-c4cccnc4F)ccc2O3)COC1 [AMG-8718, (S)-7-(2-Fluoropyridin-3-yl)-3-((3-methyloxetan-3-yl)ethynyl)-5′H-spiro[chromeno[2,3-b]pyridine-5,4′-oxazol]-2′-amine] | – | – | – | – | – | – | – | – | Ocular toxicity in preclinical animal models [1]: ocular toxicity in preclinical animal models |
| NC1=N[C@@]2(c3cc(NC(=O)c4ccc(F)cn4)ccc3F)COC[C@H]2CS1 [LY2886721, reference compound] | > 15 | 13 | – | – | – | – | – | – | pKa ([2]; read-out: pKa): 7.6; Female ocular toxicity incidence (positive or negative animals / total evaluated) [3, 10]: 4/4; Female ocular toxicity outcome [3, 10]: Neg (negative (neg) if there was no ocular abnormality observed); Male ocular toxicity incidence (positive or negative animals / total evaluated) [3, 10]: 4/4; Male ocular toxicity outcome [3, 10]: Neg (negative (neg) if there was no ocular abnormality observed); Retinal finding by fluorescence microscopy ([3]; rats, 100 mg kg-1 daily, 29 days): no ocular abnormality was observed; Ocular toxicity ([3]; rats): negative for ocular toxicity; also recorded: no ocular findings; also recorded: no ocular toxicity; concentration at 29 days ([4]; 100 mg kg-1 once daily): 3.48 µM; IC50 (CatD [5]): > 100 µM; CatD potency difference between cell-free enzyme and cellular assays (CatD [6]): > 15 fold; Inhibition of purified CatD (CatD [8]; purified CatD biochemical substrate assay): inactive |
| NC1=N[C@@]2(c3ccc(F)cc3F)CO[C@@H](C(=O)O)C[C@H]2[C@@H](CF)S1 [PF-2696] | – | – | > 20 | > 20 | > 20 | – | – | – | IC50 (BACE1 [9]; purified enzyme): > 20 µM |
| NC1=N[C@@]2(c3ccc(F)cc3F)CO[C@@H](c3cc(CO)no3)C[C@H]2[C@@H](CF)S1 [PF-3763] | 17 | 4.8 | 1.6 | 0.94 | 16 | 7.0 | 0.38 | 0.08 | – |
| NC1=N[C@@]2(c3ccc(F)cc3F)CO[C@@H](c3nc(CO)co3)C[C@H]2[C@@H](CF)S1 [PF-7152] | 64 | 7.2 | 0.67 | 0.58 | 37 | 6.9 | 0.46 | 0.064 | – |
| C[C@H]1SC(N)=N[C@@]2(c3ccc(F)cc3F)CO[C@@H](c3cc(CO)no3)C[C@@H]12 [PF-9159] | 150 | 12 | – | 0.11 | 17 | 7.8 | 0.21 | 0.017 | – |
| COc1cnc(C(=O)Nc2ccc(F)c([C@]3(C)CS(=O)(=O)N(C)C(N)=N3)c2)cn1 [SG1, reference compound] | > 34 | 10 | 0.017 | 2.9 | > 100 | – | 0.006 | 0.00059 | pKa ([2]; read-out: pKa): 6.9; Female ocular toxicity incidence (positive or negative animals / total evaluated) ([3]; 29 days, 60 mg kg-1 once daily): 4/4; Female ocular toxicity outcome ([3]; 29 days, 60 mg kg-1 once daily): Neg (negative (neg) if there was no ocular abnormality observed); Male ocular toxicity incidence (positive or negative animals / total evaluated) ([3]; 29 days, 60 mg kg-1 once daily): 4/4; Male ocular toxicity outcome ([3]; 29 days, 60 mg kg-1 once daily): Neg (negative (neg) if there was no ocular abnormality observed); Ocular toxicity ([3]; rats): negative for ocular toxicity; also recorded: no ocular findings; also recorded: no ocular toxicity; concentration at 29 days ([4]; 60 mg kg-1 once daily): 1.56 µM; BACE1 selectivity over CatD in cells (CatD [6]; cellular inhibition of BACE1 cleavage of APP versus inhibition of CatD labelling by PF-7802): > 2,000 fold |
| Cl.N [ammonium chloride] | – | – | – | – | – | – | – | – | PF-7802 labelling of CatD after lysosome neutralization (CatD in ARPE-19 cells): significantly decreased labelling of CatD |
| CO/C1=C\C(C)=C\[C@@H](C)[C@@H](O)[C@@H](C)C/C(C)=C/C=C/[C@H](OC)[C@@H]([C@@H](C)[C@@H](O)[C@H](C)[C@@]2(O)C[C@@H](O)[C@H](C)[C@@H](C(C)C)O2)OC1=O [bafilomycin A1] | – | – | – | – | – | – | – | – | PF-7802 labelling of CatD after lysosome neutralization (CatD in ARPE-19 cells): significantly decreased labelling of CatD |
